The experiment has as its system p53 phosphorylation at ser20 and acetylation at lys382. Briefly: Western blot of p53 phosphorylation and acetylation (DNA damage signaling). The class given is cell-based, human. To be noted: 16 h; for p53 acetylation at lys382: HCT116/p53(+/+) cells; for p53 phosphorylation at ser20: HCT116/p53(+/+)/PG13 and SW480 cells. As for the experimental part: FIGS. 7A-7C show: p53 levels and posttranslational modifications after treatment by selected compounds. (A) HCT116/p53(+/+) cells were treated with adriamycin, compounds nos. 1, 14, 17, and 23 for 16 h, and p53 and acetylated p53 levels were detected by Western blot. Nonspecific bands (Lower) serve as a loading control. (B) HCT116/p53(+/+)/PG13 cells were treated with adriamycin or compounds as indicated for 16 h and p53, phosphorylated p53 (ser20) levels and firefly luciferase protein expression were detected by Western blot. (C) SW480 cells were treated with compounds as indicated for 16 h, and p53 and phosphorylated p53 (ser20) levels were detected by Western blot. CP, CP-31398;
Cells were collected and protein concentration was quantified by the Bio-Rad protein assay prior to SDS-PAGE. Proteins were transferred to a PVDF membrane (Immobilon-P, Millipore Corporation, Bedford, Mass.) by a semi-dry transfer apparatus (Bio-Rad Laboratories, Hercules, Calif.). The membranes with transferred proteins were blotted with 10% W/V non-fat dry milk and then incubated with the primary antibody and subsequently secondary antibodies, which were labelled by horseradish peroxidase, or infrared dyes (IR). Signals were visualized by either ECL (Amersham Pharmacia Biotech, England, UK) and exposed to an X-ray film, or scanned by the Odyssey Infared Imaging System (LI-COR Biosciences, Lincoln, Nebr.). Anti-p53, DO-1, was from Santa Cruz biotechnology, Inc. (Santa Cruz, Calif.), anti-p73 (AB-1) and anti-p21 (AB-1) were obtained from Calbiochem (San Diego, Calif.). Anti-ser20 of p53 Cell were obtained from Signaling Technology (Danvers, Mass.) and anti-DR5 antibody was obtained from Cayman Chemical (Ann Arbor, Mich.).
In order to determine whether DNA damage signaling is involved in the mechanism of action of selected compounds, Western blot was used to test the status of phosphorylation and acetylation of p53, which are sensitive indicators of DNA damage.

With `COc1cccc2c1C(=O)c1c(O)c3c(c(O)c1C2=O)CC(O)(/C(C)=N/O)CC3OC1CC(N)C(O)C(C)O1` (stereo not shown) [#14], the “p53 acetylation at lys382” value was “strong inducers” and the “p53 phosphorylation at ser20” value is listed as “strong inducers of p53 phosphorylation at ser20”.
For the compound `COc1cccc2c1C(=N)c1c(O)c3c(c(O)c1C2=O)C[C@@](O)(C(C)=O)C[C@@H]3O[C@H]1C[C@H](N)[C@H](O)[C@H](C)O1` [#23], the “p53 acetylation at lys382” value is on record as “strong inducers” and the “p53 phosphorylation at ser20” value is on record as “strong inducers of p53 phosphorylation at ser20”.

(Values after US20160151403A1, “SMALL MOLECULE MODULATORS OF P53 FAMILY SIGNALING” (The Trustees of the University of Pennsylvania, priority 2006, published 2016).)
